Laboratory results reported in the supplement of paper PMC8671470.
± gives the standard deviation of the averaged measurements.

What was measured:
HL-60 [1] = assay: area under dose-response curve (viability, 1 nM-10 uM) (fraction (0-1)); higher = more sensitive; conditions: 72 h
In short: (§1)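 Area under the curve, where listed, was derived from four-parameter log-logistic fits with drc and PharmacoGx. These fits used CellTiter-Glo viability from HL-60 cells in RPMI 1640 with 10% FBS, normalised to DMSO wells and wells holding 10 μM proteasome inhibitor. The full library was rescreened on 384-well plates in duplicate at five tenfold concentrations, 1–10,000 nM, with DMSO or 100 nM of one of three metabolic inhibitors, for 72 h at 37 °C, 5% CO2.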

HL-60 [2] = assay: cell viability (% survival relative to DMSO control); higher = less cytotoxic; conditions: 72 h
In short: as §1

[3] = co-treatment: GSK2194069 100 nM
[4] = co-treatment: pictilisib 100 nM
[5] = 0.001 µM, co-treatment: AZD3965 100 nM
[6] = 0.001 µM, co-treatment: DMSO vehicle
[7] = 0.001 µM, co-treatment: GSK2194069 100 nM
[8] = 0.001 µM, co-treatment: pictilisib 100 nM
[9] = 0.01 µM, co-treatment: AZD3965 100 nM
[10] = 0.01 µM, co-treatment: DMSO vehicle
[11] = 0.01 µM, co-treatment: GSK2194069 100 nM
[12] = 0.01 µM, co-treatment: pictilisib 100 nM
[13] = 0.1 µM, co-treatment: AZD3965 100 nM
[14] = 0.1 µM, co-treatment: DMSO vehicle
[15] = 0.1 µM, co-treatment: GSK2194069 100 nM
[16] = 0.1 µM, co-treatment: pictilisib 100 nM
[17] = 1 µM, co-treatment: AZD3965 100 nM
[18] = 1 µM, co-treatment: DMSO vehicle
[19] = 1 µM, co-treatment: GSK2194069 100 nM
[20] = 1 µM, co-treatment: pictilisib 100 nM
[21] = 10 µM, co-treatment: AZD3965 100 nM
[22] = 10 µM, co-treatment: DMSO vehicle
[23] = 10 µM, co-treatment: GSK2194069 100 nM
[24] = 10 µM, co-treatment: pictilisib 100 nM

Structure (SMILES) | area under dose-response curve (HL-60 [1]; co-treatment: AZD3965 100 nM) | area under dose-response curve (HL-60 [1]; co-treatment: DMSO vehicle) | area under dose-response curve (HL-60 [1]; [3]) | area under dose-response curve (HL-60 [1]; [4]) | cell viability (HL-60 [2]; [5]) [%] | cell viability (HL-60 [2]; [6]) [%] | cell viability (HL-60 [2]; [7]) [%] | cell viability (HL-60 [2]; [8]) [%] | cell viability (HL-60 [2]; [9]) [%] | cell viability (HL-60 [2]; [10]) [%] | cell viability (HL-60 [2]; [11]) [%] | cell viability (HL-60 [2]; [12]) [%] | cell viability (HL-60 [2]; [13]) [%] | cell viability (HL-60 [2]; [14]) [%] | cell viability (HL-60 [2]; [15]) [%] | cell viability (HL-60 [2]; [16]) [%] | cell viability (HL-60 [2]; [17]) [%] | cell viability (HL-60 [2]; [18]) [%] | cell viability (HL-60 [2]; [19]) [%] | cell viability (HL-60 [2]; [20]) [%] | cell viability (HL-60 [2]; [21]) [%] | cell viability (HL-60 [2]; [22]) [%] | cell viability (HL-60 [2]; [23]) [%] | cell viability (HL-60 [2]; [24]) [%]
CC(C)c1ccc2c(c1)c(SC(C)(C)C)c(CC(C)(C)C(=O)O)n2Cc1ccc(Cl)cc1 [MK-886] | < 0.0301 | < 0.0301 | < 0.0301 | < 0.0301 | 105 ± 4.8 | 103 ± 0.78 | 104 ± 2.2 | 105 ± 12 | 95.8 ± 12 | 99.9 ± 1.5 | 98.8 ± 5.2 | 98.1 ± 1.9 | 108 ± 7.9 | 104.5 ± 0.84 | 105 ± 13 | 109 ± 11 | 99.8 ± 2 | 107 ± 2.3 | 97.5 ± 1.7 | 98.9 ± 5.2 | 102 ± 3.9 | 109.9 ± 1 | 94.4 ± 7.3 | 108 ± 2.2
CC1Cc2ccccc2N1NC(=O)c1ccc(Cl)c(S(N)(=O)=O)c1 (stereo not given) [Indapamide] | < 0.0301 | < 0.0301 | < 0.0301 | < 0.0301 | 103 ± 4.1 | 98.1 ± 3.9 | 103.4 ± 0.98 | 100 ± 10 | 104 ± 2 | 104 ± 4.2 | 107.5 ± 0.58 | 112 ± 10 | 99.4 ± 5.3 | 101 ± 1.1 | 94.7 ± 4.5 | 97.14 ± 0.93 | 103.1 ± 0.94 | 99.5 ± 3.2 | 98.3 ± 8.1 | 92.8 ± 8.5 | 95.9 ± 1.7 | 103.2 ± 0.48 | 99.6 ± 4.5 | 98.4 ± 2.1
Cc1nc(-c2ccc(OCC(C)C)c(C#N)c2)sc1C(=O)O [Febuxostat] | 0.0351 | < 0.0301 | < 0.0301 | 0.0462 | 96.8 ± 1 | 96.5 ± 3.3 | 99.9 ± 2.2 | 98.2 ± 2.1 | 104 ± 1.1 | 99.3 ± 3.9 | 93.2 ± 8 | 100 ± 2.6 | 104 ± 1.4 | 103 ± 5.2 | 94.47 ± 0.83 | 107 ± 7.7 | 98.3 ± 3 | 95.6 ± 1.8 | 95.2 ± 2.4 | 95.4 ± 1.8 | 98.16 ± 0.3 | 104.8 ± 0.8 | 98.7 ± 3.6 | 96 ± 4.1
NCc1ccc(S(N)(=O)=O)cc1 [4-Homosulfanilamide] | < 0.0301 | < 0.0301 | < 0.0301 | < 0.0301 | 102 ± 3.3 | 103.6 ± 0.27 | 101 ± 4.4 | 98.6 ± 3.8 | 106 ± 5.2 | 105 ± 4.4 | 103 ± 6.2 | 107 ± 3.1 | 99.06 ± 0.68 | 100 ± 3.1 | 98.5 ± 5.5 | 97.5 ± 1.2 | 95.9 ± 1.2 | 101 ± 2.8 | 96.9 ± 4.6 | 95.5 ± 8.2 | 99.2 ± 4.8 | 96.4 ± 2 | 97.5 ± 5.8 | 98.3 ± 6.2
Cc1cc(O)c2c(c1)C(=O)c1cc(O)cc(O)c1C2=O [Emodin] | < 0.0301 | < 0.0301 | < 0.0301 | < 0.0301 | 101 ± 3.6 | 102 ± 3.5 | 92.5 ± 2.3 | 96.6 ± 2.1 | 97.9 ± 3.5 | 100 ± 1.2 | 76.2 ± 16 | 107 ± 18 | 101 ± 2.3 | 101 ± 3.1 | 94 ± 6.6 | 97.4 ± 1.4 | 97.585 ± 0.0084 | 102.6 ± 0.14 | 74.7 ± 24 | 89.4 ± 7.9 | 98.7 ± 2.1 | 103.5 ± 0.92 | 96.7 ± 1.6 | 97.6 ± 2.7
CNC(=C[N+](=O)[O-])NCCSCc1ccc(CN(C)C)o1 [Ranitidine] | < 0.0301 | < 0.0301 | < 0.0301 | < 0.0301 | 103 ± 2.5 | 104 ± 0.67 | 94.3 ± 10 | 95.9 ± 16 | 102 ± 2.5 | 87.7 ± 16 | 89.5 ± 1.4 | 70.3 ± 19 | 99.6 ± 4.2 | 105.91 ± 0.021 | 108 ± 12 | 98.5 ± 5.1 | 107 ± 8.7 | 106.4 ± 0.2 | 106 ± 12 | 110 ± 11 | 100 ± 3 | 96.1 ± 5.9 | 102 ± 4.1 | 96.9 ± 4.7
COc1ccc2c(c1)c(CC(=O)O)c(C)n2C(=O)c1ccc(Cl)cc1 [Indomethacine] | < 0.0301 | < 0.0301 | < 0.0301 | < 0.0301 | 94.5 ± 15 | 93.22 ± 0.93 | 88 ± 18 | 90.7 ± 5.6 | 76.1 ± 30 | 91 ± 9.4 | 95.9 ± 5.5 | 87.2 ± 13 | 100 ± 2.1 | 97.19 ± 0.53 | 97.61 ± 0.045 | 93.2 ± 1.9 | 103 ± 1.9 | 101 ± 2.7 | 99.8 ± 6.3 | 97.1 ± 1.1 | 91.6 ± 14 | 100 ± 3 | 89.1 ± 4.4 | 88.4 ± 1.3
CC(=O)N[C@@H](CS)C(=O)O [Acetylcysteine] | < 0.0301 | < 0.0301 | < 0.0301 | < 0.0301 | 99.1 ± 8 | 94.2 ± 10 | 97.8 ± 8.2 | 103 ± 9.8 | 99.8 ± 1.2 | 101.13 ± 0.024 | 103 ± 1.7 | 101.2 ± 0.78 | 105 ± 6.2 | 104 ± 5.7 | 106 ± 5.4 | 106 ± 1.6 | 102 ± 6.2 | 96.1 ± 8.7 | 101 ± 4.8 | 101 ± 7.9 | 91.6 ± 1 | 93.7 ± 4.5 | 91.4 ± 4.3 | 86.3 ± 9.3
c1ccc2nc(-c3nnc4sc(-c5cnccn5)nn34)ccc2c1 | < 0.0301 | < 0.0301 | < 0.0301 | < 0.0301 | 98.9 ± 0.82 | 97.4 ± 1.7 | 102 ± 7.4 | 105 ± 5.6 | 98.75 ± 0.27 | 100 ± 1.4 | 101 ± 5 | 103 ± 4.5 | 100.9 ± 0.44 | 98.61 ± 0.72 | 100 ± 5.6 | 103 ± 8.9 | 98.9 ± 3.1 | 98 ± 1.4 | 93.01 ± 0.7 | 107 ± 5.1 | 98.4 ± 2 | 102 ± 2.2 | 95.9 ± 5.9 | 100.1 ± 0.31
OC[C@H]1OC(O)C[C@@H](O)[C@@H]1O (stereo not given in full) [2-deoxyglucose] | < 0.0301 | < 0.0301 | < 0.0301 | < 0.0301 | 107 ± 5.6 | 104 ± 3 | 102 ± 4.2 | 102 ± 5.7 | 110 ± 2.7 | 101 ± 8.1 | 107 ± 8 | 109.7 ± 0.56 | 103 ± 3.9 | 99.45 ± 0.1 | 102 ± 5.5 | 99.6 ± 1.3 | 103.1 ± 0.65 | 103.5 ± 0.84 | 101 ± 5 | 104 ± 1.2 | 103 ± 3.5 | 97.27 ± 0.73 | 104 ± 6.3 | 108 ± 14
